Laboratory results reported in US9730945B2, “Diagnosis of autism spectrum disorders and its treatment with an antagonist or inhibitor of the 5-HT2c receptor signaling pathway” (Massachusetts Institute of Technology, priority 2009, dated 2017).
“Also recorded” adds a separate entry of the source.

System: Pten haploinsufficient mice
Assay: Social approach behavior assay (three-chamber apparatus)
Type: in vivo
Conditions: female Pten haploinsufficient mice, 8 weeks of age, IP 0.3 mg/kg, 20 minutes prior to assay, quantified over 10 minutes, preliminary test
Procedure: FIG. 5: Effects of the 5-HT2cR antagonist SB 242084 on social approach behavior in Pten haploinsufficient mice. The mice tested were female littermates, 8 weeks of age. The mice were given an IP injection of 0.3 mg/kg of SB 242084 or vehicle, 20 minutes prior to start of the assay. A social stimulus mouse was placed in chamber 1 and an identical empty cage was placed in chamber 3. The percent time the subject mouse spent interacting with the stimulus mouse was quantified over 10 minutes. […] For vehicle treated groups, n=6; for SB 242084-treated groups, n=8. * P<0.05, ANOVA within group comparison between chamber 1 and chamber 3. In each group of bars, the order is: left bar=chamber 1, middle bar=chamber 2, right bar=chamber 3.
A mouse was placed in an open top acrylic box (24″L×12″W×12″H) with opaque walls. The box was divided into three (8″L×12″W) chambers separated by opaque acrylic panels with holes providing passage between chambers. For reference, the chambers were numbered, from left to right 1, 2, and 3. […] The resulting video was scored with computer assistance by importing into ImageJ software (http://rsb.info.nih.gov/ij/), where each chamber was defined as a region of interest using a script written in-house, and the number of frames in which the mouse was in each region of interest was quantified. […]

Cc1cc2c(cc1Cl)N(C(=O)Nc1ccc(Oc3cccnc3C)nc1)CC2 [SB 242084, 6-Chloro-5-methyl-1-[[2-(2-methylpyrid-3-yloxy)pyrid-5-yl]carbamoyl]indoline]
social approach behavior (percent time interacting with stimulus mouse, chamber 1 vs chamber 3): can offset deficits in social approach behavior; also recorded: significant preference for interacting with the stimulus mouse
